Measured values from publication PMC4579270, “Identification and Characterization of an Irreversible Inhibitor of CDK2” (Chemistry & Biology, 2015).
Read-outs that look alike come from different tables or passages of the source. Values belong to the molecule of their own block, whether it stands above or below them.

Experiments:
Assay type in all cases: biochemical
[1] = biological target: T1, CDK2^K88E/cyclin A (Homo sapiens, UniProt P24941, K88E); test: Bandshift kinase assay after incubation and dialysis, mutant
T1 construct: GST (N, cleaved yes); made in house; host or cells: Escherichia coli; phosphorylated in vitro by GST-CAK
Protocol: The bandshift experiment was repeated after incubating CDK2^K88E/cyclin A and CDK2^K89V/cyclin A with NU6300, NU6310, or DMSO followed by dialysis to remove unbound inhibitor (Figure S2G).
Figure S2, Related to Figure 3. Identification of the site of CDK2 modification by NU6300. (A-G) Single site CDK2 mutants CDK2D86A, CDK2K88E, and CDK2K89V identify the site of CDK2 modification by NU6300. These mutations change the CDK2 sequence to that of CDK7 and are known not to disrupt the CDK2 fold. Mass spectra of CDK2 mutants: […]
(G) Protein kinase activity of authentic CDK2 and single site CDK2 mutants following incubation with NU6300 or NU6310. Samples were taken at the indicated number of minutes after initiation of the reaction. Note that compared to authentic CDK2, the single site Lys88 and Lys89 mutants have a slower rate of reaction (Compare LHS panels). This drop in activity was expected because whereas the wild type protein was produced by co-expression with S. cerevisiae […]
the mutant proteins were activated by S. cerevisiae CAK1 phosphorylation in vitro– a relatively inefficient process as judged from the results of ESI-MS (Table S1). (H) NU6300 […]
NU6300 carbon atoms are coloured green. Rb, retinoblastoma protein, Phospho-Rb, […]
Protein expression and purification
Site-directed mutagenesis of CDK2 was performed using the QuikChange II kit (Stratagene) following the manufacturer’s instructions and verified by DNA sequencing.
Wild-type CDK2 phosphorylated at Thr160, untagged human cyclin A2 (residues 174-432), S. cerevisiae GST–CAK, GST–3C-protease and GST–pRb (residues 792–928) were expressed and purified as previously described (Brown et al., 1999a; Brown et al., 1999b; Welburn and Endicott, 2005). […]
CDK2/cyclin A (200 µM) was incubated overnight with 1 mM inhibitor or DMSO, and then dialysed for 8 h with regular replacement of dialysis buffer into HEPES-buffered saline (50 mM HEPES, pH 7.5, 250 mM NaCl, 0.02% MTG). […] Reactions were stopped by addition of SDS-PAGE loading buffer and analyzed by SDS-PAGE. […]

[2] = biological target: VEG-FR1 (Homo sapiens, UniProt P17948); test: Dundee kinase screen re-test (standard format and 4 hour pre-incubation); conditions: VEG-FR1, 0.5µM
Protocol: (§1) Prior to determining its cellular activity, we carried out a screen to assess its selectivity against a panel of 131 protein kinases under conditions that would not distinguish between a reversible or irreversible mode of action. […] These 13 kinases and 29 additional kinases, selected for their known sensitivity to other inhibitors within the purine series, were then tested in a modified screening format in which the assay was repeated following a 4-hr pre-incubation (Table S3B). […] However, conformational flexibility around the active site may promote such an interaction with a residue from another part of the structure ([Martin et al., 2012]).
(§2) Table S3, Related to Figure 4. NCL-0006300 protein kinase selectivity. (A) NU6300 was tested at a single concentration of 1µM against 131 protein kinases present in a Dundee protein kinase screen (Bain et al., 2007). Values given are % activity remaining and are the average of duplicate measurements: 0-25% (red), 26-50% (yellow), 51-80% (black) and above 81% (green). The kinase domain sequences (as defined by UniProt) of […]
(§3) have a lysine residue at a position close to CDK2 Lys88 or Lys89. However, in the structure of tyrosine-protein kinase BTK (PDB ID: 3GEN) the residue equivalent to CDK2 Asp86 is Cys481 and therefore there is the potential for a covalent adduct to be formed through this side chain. Ephrin type-B receptor 3 (UniProt entry P54753) also encodes a cysteine residue (Cys717) that by sequence alignment would be predicted to be close to the CDK2 lysine pair. (B) Selected kinases were re-tested in the Dundee kinase screen against NU6300 at a single concentration of 0.5 µM both in the standard assay format and following a 4 hour pre-incubation in the presence of NU6300. Kinases which have very low activity after the 4 hour incubation so that results might not be wholly reliable are boxed in salmon. Kinases where the activity after a 4 hour pre-incubation is < 50% that in the standard assay format are highlighted in red.

[3] = biological target: T2, Aurora A (Homo sapiens, UniProt O14965); test: as above
T2 sequence (O14965 1-403): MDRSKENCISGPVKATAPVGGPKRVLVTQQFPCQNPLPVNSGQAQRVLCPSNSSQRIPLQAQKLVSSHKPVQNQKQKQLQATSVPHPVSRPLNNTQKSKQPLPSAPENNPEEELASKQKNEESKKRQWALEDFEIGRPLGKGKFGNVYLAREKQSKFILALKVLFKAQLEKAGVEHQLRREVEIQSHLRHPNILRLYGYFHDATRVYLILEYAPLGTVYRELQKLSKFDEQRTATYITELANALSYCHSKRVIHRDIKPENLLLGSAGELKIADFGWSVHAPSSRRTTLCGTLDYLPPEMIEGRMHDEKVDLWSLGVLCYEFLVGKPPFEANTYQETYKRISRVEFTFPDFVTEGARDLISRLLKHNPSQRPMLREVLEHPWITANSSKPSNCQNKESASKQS
Protocol: as §1, §2, §3

[4] = 4hr RT preincubation, read-out: %Remaining activity at 0.5µM NU6300 - 4hr RT preincubation
[5] = usual format, read-out: %Remaining activity at 0.5µM NU6300 - Usual assay format

VEG-FR1, sequence (P17948 27-1338): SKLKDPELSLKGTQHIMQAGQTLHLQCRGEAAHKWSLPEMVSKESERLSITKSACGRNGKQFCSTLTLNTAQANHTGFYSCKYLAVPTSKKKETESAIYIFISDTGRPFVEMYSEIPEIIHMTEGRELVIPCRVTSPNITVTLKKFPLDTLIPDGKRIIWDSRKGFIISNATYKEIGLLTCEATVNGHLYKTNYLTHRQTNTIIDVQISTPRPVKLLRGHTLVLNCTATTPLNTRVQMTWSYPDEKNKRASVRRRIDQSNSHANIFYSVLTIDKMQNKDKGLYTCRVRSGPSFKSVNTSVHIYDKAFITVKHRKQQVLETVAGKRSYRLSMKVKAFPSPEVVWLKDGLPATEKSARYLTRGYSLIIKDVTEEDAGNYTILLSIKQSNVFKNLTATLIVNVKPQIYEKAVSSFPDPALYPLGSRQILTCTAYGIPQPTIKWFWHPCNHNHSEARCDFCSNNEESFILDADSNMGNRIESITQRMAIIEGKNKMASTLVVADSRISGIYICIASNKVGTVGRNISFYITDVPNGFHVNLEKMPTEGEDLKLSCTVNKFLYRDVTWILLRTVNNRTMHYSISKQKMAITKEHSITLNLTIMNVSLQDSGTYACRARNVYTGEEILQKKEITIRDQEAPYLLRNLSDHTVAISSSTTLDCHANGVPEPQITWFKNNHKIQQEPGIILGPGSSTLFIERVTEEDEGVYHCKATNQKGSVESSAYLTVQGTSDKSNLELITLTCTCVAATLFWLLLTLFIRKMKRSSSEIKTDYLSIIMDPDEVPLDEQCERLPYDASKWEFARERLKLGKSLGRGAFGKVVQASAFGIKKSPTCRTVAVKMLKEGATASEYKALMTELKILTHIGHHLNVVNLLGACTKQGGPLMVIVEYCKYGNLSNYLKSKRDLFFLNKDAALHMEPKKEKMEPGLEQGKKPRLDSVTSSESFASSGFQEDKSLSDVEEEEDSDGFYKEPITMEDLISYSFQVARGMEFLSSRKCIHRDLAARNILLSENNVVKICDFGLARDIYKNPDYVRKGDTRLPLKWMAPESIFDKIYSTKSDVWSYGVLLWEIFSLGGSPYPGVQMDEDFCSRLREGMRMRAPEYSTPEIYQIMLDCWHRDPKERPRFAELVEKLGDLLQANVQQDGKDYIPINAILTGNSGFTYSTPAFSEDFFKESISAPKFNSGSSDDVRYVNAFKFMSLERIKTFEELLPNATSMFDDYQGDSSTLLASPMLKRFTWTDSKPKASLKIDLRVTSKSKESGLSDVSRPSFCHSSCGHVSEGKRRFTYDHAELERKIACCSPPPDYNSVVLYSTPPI

CDK2 activity against Rb after incubation with inhibitor and dialysis [1]: recovered their activity
SMILES: CCS(=O)(=O)c1ccc(Nc2nc(OCC3CCCCC3)c3nc[nH]c3n2)cc1 [NU6310, 6-(cyclohexylmethoxy)-N-(4-(ethylsulfonyl)phenyl)-9H-purin-2-amine]

SMILES: C=CS(=O)(=O)c1ccc(Nc2nc(OCC3CCCCC3)c3nc[nH]c3n2)cc1 [NU6300, 6-(cyclohexylmethoxy)-N-(4-(vinylsulfonyl)phenyl)-9H-purin-2-amine]
remaining activity at 0.5 µM [2, 4]: 51%
remaining activity at 0.5 µM [2, 5]: 43%
remaining activity at 0.5 µM [3, 4]: 6%
remaining activity at 0.5 µM [3, 5]: 26%
additional loss of activity after pre-incubation ([3]; 4-hr pre-incubation vs usual format, 0.5 µM): > 50%
